Earlier results in patent US20080114067A1, “Composition for Recovery From or Prevention of Central Nervous System Fatigue” (priority 2005, published 2008).

System: human placental cell
Settings: placental brush border tissue

SMILES | suppression of uptake of tryptophan
N[C@@H](CS)C(=O)O [L-cysteine] | could be suppressed
CC(C)C[C@H](N)C(=O)O [L-leucine] | could be suppressed
CSCC[C@H](N)C(=O)O [L-methionine] | could be suppressed
N[C@@H](Cc1ccccc1)C(=O)O [L-phenylalanine] | could be suppressed
CC(C)[C@H](N)C(=O)O [L-valine] | could be suppressed
